Molecules are shown by their SMILES. Values joined by “and” are separate entries in the source; they are usually repeats but may differ in a detail not shown here. Equal entries are not always repeated.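 Assay format: 96-well plates, 48-hour exposure. The concentration for 50% growth inhibition is given as GI50. TGI: total growth inhibition.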

Among the test systems are DLD-1 colon; DMS 114 small cell lung; HOP-18 NSCLC; KM20L2 colon; P388 leukemia; SNB-78 CNS; XF 498 CNS.
Holding throughout (test): NCI tumour cell line growth inhibition, 48 h

For `CSC1SCC2C(=O)N(C)C(C(C)C)C(=O)OCC(NC(=O)c3cnc4ccccc4n3)C(=O)NC(C)C(=O)N(C)C1C(=O)N(C)C(C(C)C)C(=O)OCC(NC(=O)c1cnc3ccccc3n1)C(=O)NC(C)C(=O)N2C` (stereo not given), the GI50 in the test on DLD-1 colon was 0.0184 nM; in the test with DMS 114 small cell lung, 0.00345 nM; in the test on HOP-18 NSCLC, 0.00966 nM; with KM20L2 colon, 0.00529 nM; in the test with P388 leukemia it was 0.00499 nM; in the test with SNB-78 CNS it was 0.000896 nM. For the same compound, in the test with XF 498 CNS, the GI50 is 0.0306 nM. In addition, the TGI was 1080 nM and 5930 nM in the test on DLD-1 colon; 0.00838 nM in the test with DMS 114 small cell lung; 0.0567 nM in the test on XF 498 CNS.

Values taken from PubChem BioAssay (NCI).
